pEC50: −log10 of the molar value.
How the values were obtained:
Format in all cases: cell-based, murine and human
Details in all cases: GAL4-PPAR LBD chimera
PPAR-delta = biological target: T1, PPAR-delta (UniProt Q03181); test: PPAR-delta transactivation assay (GAL4 chimera, luciferase reporter) in CV-1 cells
T1 sequence (Q03181 1-441): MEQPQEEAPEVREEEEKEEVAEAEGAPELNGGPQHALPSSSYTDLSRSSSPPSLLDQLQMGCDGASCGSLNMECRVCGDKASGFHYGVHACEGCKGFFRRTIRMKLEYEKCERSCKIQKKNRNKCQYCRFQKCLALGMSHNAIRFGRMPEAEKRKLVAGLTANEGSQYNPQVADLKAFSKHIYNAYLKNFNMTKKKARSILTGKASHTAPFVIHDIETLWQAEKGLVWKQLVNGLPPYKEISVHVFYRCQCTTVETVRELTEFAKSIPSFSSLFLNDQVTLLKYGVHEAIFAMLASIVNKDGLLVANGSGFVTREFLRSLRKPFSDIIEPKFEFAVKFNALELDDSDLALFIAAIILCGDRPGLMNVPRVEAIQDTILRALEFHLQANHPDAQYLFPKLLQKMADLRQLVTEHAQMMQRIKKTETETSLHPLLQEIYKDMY
In short: (§1)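 CV-1 cells transiently transfected with murine or human PPAR-alpha, -gamma or -delta ligand-binding domain fused to GAL4 DNA-binding domain plus a GAL4-site luciferase reporter. After replating in phenol-red-free DME with 5% delipidated calf serum, cells were exposed to compound 20-24 h; luciferase read-out gave EC50.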

PPAR-gamma = biological target: T2, PPAR-gamma (UniProt P37231); test: PPAR-gamma transactivation assay (GAL4 chimera, luciferase reporter) in CV-1 cells
T2 sequence (P37231 1-505): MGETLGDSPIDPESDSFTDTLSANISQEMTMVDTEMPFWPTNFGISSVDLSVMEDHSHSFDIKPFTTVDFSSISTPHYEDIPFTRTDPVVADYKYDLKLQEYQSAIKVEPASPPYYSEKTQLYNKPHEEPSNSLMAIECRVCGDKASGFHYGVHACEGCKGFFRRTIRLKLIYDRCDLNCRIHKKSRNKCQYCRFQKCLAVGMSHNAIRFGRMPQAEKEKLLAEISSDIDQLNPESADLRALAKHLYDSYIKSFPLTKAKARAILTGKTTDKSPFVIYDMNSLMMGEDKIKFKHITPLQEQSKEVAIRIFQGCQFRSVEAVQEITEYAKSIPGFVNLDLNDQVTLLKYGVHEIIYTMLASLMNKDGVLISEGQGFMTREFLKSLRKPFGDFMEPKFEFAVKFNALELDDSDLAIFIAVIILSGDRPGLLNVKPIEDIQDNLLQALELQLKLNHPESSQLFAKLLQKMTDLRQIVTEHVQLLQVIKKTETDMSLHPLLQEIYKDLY
In short: as §1

PPAR-alpha = biological target: T3, PPAR-alpha (UniProt Q07869); test: PPAR-alpha transactivation assay (GAL4 chimera, luciferase reporter) in CV-1 cells
T3 sequence (Q07869 1-468): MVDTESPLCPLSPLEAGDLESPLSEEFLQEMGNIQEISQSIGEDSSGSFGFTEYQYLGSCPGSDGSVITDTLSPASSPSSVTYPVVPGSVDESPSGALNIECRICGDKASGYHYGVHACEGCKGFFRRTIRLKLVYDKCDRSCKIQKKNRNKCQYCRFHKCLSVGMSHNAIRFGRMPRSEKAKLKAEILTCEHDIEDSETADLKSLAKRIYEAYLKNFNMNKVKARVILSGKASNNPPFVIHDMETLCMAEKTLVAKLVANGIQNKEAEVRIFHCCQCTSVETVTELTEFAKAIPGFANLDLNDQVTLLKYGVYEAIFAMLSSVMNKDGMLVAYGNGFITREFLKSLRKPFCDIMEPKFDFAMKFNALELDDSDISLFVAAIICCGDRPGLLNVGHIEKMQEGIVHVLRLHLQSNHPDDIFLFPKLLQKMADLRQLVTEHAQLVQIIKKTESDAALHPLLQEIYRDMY
In short: as §1

Row | Structure (SMILES) | pEC50 (PPAR-delta) | pEC50 (PPAR-gamma) | pEC50 (PPAR-alpha)
1 | C[C@@H]1CN(c2ccc(C(F)(F)F)c(F)c2)C[C@H](C)N1S(=O)(=O)c1ccc2c(c1)C(C(=O)O)CC2 (stereo partly drawn) [Example 70, 6-[cis-2,6-dimethyl-4-(3-fluoro-4-trifluoromethyl-phenyl)-piperazine-1-sulfonyl]-indan-1-carboxylic acid] | > 5.30 | 4.00 to 5.30 | > 5.30
2 | O=C(O)C1CCc2ccc(S(=O)(=O)N3CCN(c4ccc(OC(F)(F)F)cc4)CC3)cc21 (stereo not drawn) [Example 71, 6-[4-(4-trifluoromethoxy-phenyl)-piperazine-1-sulfonyl]-indan-1-carboxylic acid] | > 5.30 | > 5.30 | > 5.30
3 | CCC1CN(c2ccc(C(F)(F)F)cn2)CCN1S(=O)(=O)c1ccc2c(c1)C(C(=O)O)CC2 (stereo not drawn) [Example 72, 6-[2-ethyl-4-(5-trifluoromethyl-pyridin-2-yl)-piperazine-1-sulfonyl]-indan-1-carboxylic acid] | > 5.30 | > 5.30 | > 5.30
4 | CC1(C)CN(S(=O)(=O)c2ccc3c(c2)C(C(=O)O)CC3)CCN1c1ccc(C(F)(F)F)cn1 (stereo not drawn) [Example 73, 6-[3,3-dimethyl-4-(5-trifluoromethyl-pyridin-2-yl)-piperazine-1-sulfonyl]-indan-1-carboxylic acid] | > 5.30 | > 5.30 | 4.00 to 5.30
5 | O=C(O)C1CCc2ccc(S(=O)(=O)N3CCN(c4ccc(C(F)(F)F)c(Cl)c4)CC3)cc21 (stereo not drawn) [Example 74, 6-[4-(3-chloro-4-trifluoromethyl-phenyl)-piperazine-1-sulfonyl]-indan-1-carboxylic acid] | > 5.30 | > 5.30 | > 5.30
6 | O=C(O)C1CCc2ccc(S(=O)(=O)N3C4CCC3CN(c3ccc(C(F)(F)F)cn3)C4)cc21 (stereo not drawn) [Example 78] | > 5.30 | 4.00 to 5.30 | 4.00 to 5.30
7 | Cc1cc(N2C[C@@H](C)N(S(=O)(=O)c3ccc4c(c3)C(C(=O)O)CC4)[C@@H](C)C2)ccc1OC(F)F (stereo partly drawn) [Example 85, 6-[4-(4-difluoromethoxy-3-methyl-phenyl)-2,6-dimethyl-piperazine-1-sulfonyl]-indan-1-carboxylic acid] | > 5.30 | 4.00 to 5.30 | 4.00 to 5.30
8 | O=C(O)Cn1ccc2ccc(S(=O)(=O)N3CCN(c4ccc(OC(F)(F)F)cc4)CC3)cc21 [Example 90, {6-[4-(4-Trifluoromethoxy-phenyl)-piperazine-1-sulfonyl]-indol-1-yl}-acetic acid] | > 5.30 | 4.00 to 5.30 | 4.00 to 5.30
9 | O=C(O)CN1CCc2ccc(S(=O)(=O)N3CCN(c4ccc(OC(F)(F)F)cc4)CC3)cc21 [Example 91, {6-[4-(4-trifluoromethoxy-phenyl)-piperazine-1-sulfonyl]-2,3-dihydro-indol-1-yl}-acetic acid] | > 5.30 | > 5.30 | 4.00 to 5.30
10 | O=C(O)C1Cc2cccc(S(=O)(=O)N3CCN(c4ccc(Cl)cc4)CC3)c2C1 (stereo not drawn) [Example 92, 4-[4-(4-chloro-phenyl)-piperazine-1-sulfonyl]-indan-2-carboxylic acid] | > 5.30 | 4.00 to 5.30 | 4.00 to 5.30
11 | C[C@H]1CN(c2ccc(C(F)(F)F)cn2)CCN1S(=O)(=O)c1cccc2c1CC(C(=O)O)C2 (stereo partly drawn) [Example 94, 4-[2-(S)-Methyl-4-(5-trifluoromethyl-pyridin-2-yl)-piperazine-1-sulfonyl]-indan-2-carboxylic acid] | > 5.30 | 4.00 to 5.30 | 4.00 to 5.30

The remaining lines, values ahead:

Row | pEC50 (PPAR-delta) | pEC50 (PPAR-gamma) | pEC50 (PPAR-alpha) | Structure (SMILES)
12 | > 5.30 | < 4.00 | < 4.00 | C[C@@H]1CN(c2ccc(C(F)(F)F)cn2)C[C@H](C)N1S(=O)(=O)c1cccc2c1CC(C(=O)O)C2 (stereo partly drawn) [Example 77, 4-[cis-2,6-dimethyl-4-(5-trifluoromethyl-pyridin-2-yl)-piperazine-1-sulfonyl]-indan-2-carboxylic acid]
13 | > 5.30 | < 4.00 | < 4.00 | C[C@@H]1CN(c2ccc(OC(F)(F)F)cc2)C[C@H](C)N1S(=O)(=O)c1cccc2c1CC(C(=O)O)C2 (stereo partly drawn) [Example 79, 4-[cis-2,6-dimethyl-4-(4-trifluoromethoxy-phenyl)-piperazine-1-sulfonyl]-indan-2-carboxylic acid]
14 | > 5.30 | 4.00 to 5.30 | 4.00 to 5.30 | C[C@@H]1CN(c2ccc(C(F)(F)F)c(F)c2)C[C@H](C)N1S(=O)(=O)c1cccc2c1CC(C(=O)O)C2 (stereo partly drawn) [Example 83, 4-[4-(3-fluoro-4-trifluoromethyl-phenyl)-cis-2,6-dimethyl-piperazine-1-sulfonyl]-indan-2-carboxylic acid]
15 | 4.00 to 5.30 | 4.00 to 5.30 | < 4.00 | C[C@@H]1CN(c2ccc(OC(F)(F)F)cc2)C[C@H](C)N1S(=O)(=O)c1ccc2c(c1)CC(C(=O)O)C2 (stereo partly drawn) [Example 84, 5-[2,6-cis-dimethyl-4-(4-trifluoromethoxy-phenyl)-piperazine-1-sulfonyl]-indan-2-carboxylic acid]
16 | > 5.30 | 4.00 to 5.30 | < 4.00 | C[C@@H]1CN(c2ccc(OC(F)(F)F)cc2)C[C@H](C)N1S(=O)(=O)c1ccc2ccn(CC(=O)O)c2c1 [Example 88, {6-[cis-2,6-Dimethyl-4-(4-trifluoromethoxy-phenyl)-piperazine-1-sulfonyl]-indol-1-yl}-acetic acid]
17 | > 5.30 | > 5.30 | > 5.30 | O=C(O)C1Cc2cccc(S(=O)(=O)N3CCN(c4ccc(OC(F)(F)F)cn4)CC3)c2C1 (stereo not drawn) [Example 89, 4-[4-(5-Trifluoromethoxy-pyridin-2-yl)-piperazine-1-sulfonyl]-indan-2-carboxylic acid]
18 | > 5.30 | 4.00 to 5.30 | 4.00 to 5.30 | C[C@H]1CN(c2ccc(OC(F)(F)F)cc2)CCN1S(=O)(=O)c1cccc2c1CC(C(=O)O)C2 (stereo partly drawn) [Example 93, 4-[2-(S)-Methyl-4-(4-trifluoromethoxy-phenyl)-piperazine-1-sulfonyl]-indan-2-carboxylic acid]
19 | > 5.30 | 4.00 to 5.30 | 4.00 to 5.30 | C[C@@H]1CN(Cc2ccc(OC(F)(F)F)cc2)C[C@H](C)N1S(=O)(=O)c1cccc2c1CC(C(=O)O)C2 (stereo partly drawn) [Example 95, 4-[cis-2,6-dimethyl-4-(4-trifluoromethoxyl-benzyl)-piperazine-1-sulfonyl]-indan-2-carboxylic acid]
20 | > 5.30 | 4.00 to 5.30 | < 4.00 | C[C@@H]1CN(Cc2ccc(C(F)(F)F)cc2)C[C@H](C)N1S(=O)(=O)c1cccc2c1CC(C(=O)O)C2 (stereo partly drawn) [Example 96, 4-[cis-2,6-dimethyl-4-(4-trifluoromethyl-benzyl)-piperazine-1-sulfonyl]-indan-2-carboxylic acid]
21 | > 5.30 | 4.00 to 5.30 | 4.00 to 5.30 | O=C(O)C1Cc2cccc(S(=O)(=O)N3CCN(Cc4ccc(C(F)(F)F)cc4)CC3)c2C1 (stereo not drawn) [Example 97, 4-[4-(4-trifluoromethyl-benzyl)-piperazine-1-sulfonyl]-indan-2-carboxylic acid]
22 | > 5.30 | > 5.30 | 4.00 to 5.30 | O=C(O)C1Cc2cccc(S(=O)(=O)N3CCN(Cc4ccc(OC(F)(F)F)cc4)CC3)c2C1 (stereo not drawn) [Example 98, 4-[4-(4-trifluoromethoxy-benzyl)-piperazine-1-sulfonyl]-indan-2-carboxylic acid]
23 | > 5.30 | 4.00 to 5.30 | 4.00 to 5.30 | C[C@@H]1CN(c2ccc(OC(F)(F)F)cn2)C[C@H](C)N1S(=O)(=O)c1cccc2c1CC(C(=O)O)C2 (stereo partly drawn) [Example 99]
24 | > 5.30 | 4.00 to 5.30 | 4.00 to 5.30 | C[C@@H]1CN(c2ccc(OC(F)(F)F)cc2)C[C@H](C)N1S(=O)(=O)c1ccc2scc(CC(=O)O)c2c1 [Example 100, {5-[cis-2,6-dimethyl-4-(4-trifluoromethoxy-phenyl)-piperazine-1-sulfonyl]-benzo[b]thiophen-3-yl}-acetic acid]

Source: patent US7517884B2 (Kalypsys Inc., priority 1998, dated 2009)
